Laboratory results from patent publication US20180243363A1, “NEUROKININ 1 RECEPTOR AGONIST MEDIATED PROTECTION OF THE EYE” (WAYNE STATE UNIVERSITY, priority 2016, published 2018).
Where a SMILES comes first, the peptide text is derived from it. [ ]: non-standard residue; d: D form. NMeL = CN[C@@H](CC(C)C)C(=O)O; Ava = NCCCCC(=O)O

What was measured:
NK1R [1] = molecular target: T1, NK1R (Mus musculus, UniProt P30548); assay: Tear film (basal tear volume) after systemic NK1R antagonist administration; format: in vivo; set-up: from tissue; host or cells: living C57Bl/6 mice (in vivo; basal tear volume); details: systemic treatment, C57Bl/6 mice
T1 sequence (P30548 whole entry): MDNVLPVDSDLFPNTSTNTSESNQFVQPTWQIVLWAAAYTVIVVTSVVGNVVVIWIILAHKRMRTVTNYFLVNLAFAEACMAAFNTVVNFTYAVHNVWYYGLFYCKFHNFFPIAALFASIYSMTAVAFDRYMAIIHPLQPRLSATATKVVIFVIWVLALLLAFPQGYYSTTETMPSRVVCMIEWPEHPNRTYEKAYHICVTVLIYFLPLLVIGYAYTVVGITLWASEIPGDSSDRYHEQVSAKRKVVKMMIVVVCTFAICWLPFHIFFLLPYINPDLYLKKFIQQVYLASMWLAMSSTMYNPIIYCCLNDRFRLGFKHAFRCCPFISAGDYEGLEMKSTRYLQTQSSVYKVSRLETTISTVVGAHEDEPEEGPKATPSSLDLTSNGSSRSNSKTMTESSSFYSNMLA
Description: FIG. 14. Alteration in Tear Film after NK1R antagonist administration.
(§1) Phenol red thread tear test. To measure the tear levels in the eyes of unmanipulated B6 and NK1R^−/− mice, pH indicator phenol red treated cotton threads were obtained from Zone-Quick (ZQ-1010, Showa Yakuhin Kako, Japan). The mice were restrained by holding the lose skin at the base of the neck without touching the facial skin or whiskers. The eyes were tested for tear level by placing the tip of the cotton thread on the bulbar conjunctiva of the lateral canthus for 30 seconds. A picture of the threads was taken and tear absorption was measured using a 10 cm scale.

NK1R [2] = molecular target: T1, NK1R; assay: Phenol red thread tear volume after ocular HSV-1 infection, GR73632 I.P. treatment; format: in vivo, mice; set-up: from tissue; host or cells: living mice (in vivo; eye / tear read-out after systemic dosing); details: GR73632 I.P. treated vs control treated group
Description: FIGS. 12A, 12B. Increased tear volume at D7 and D10 post ocular HSV-1 infection (POI) in GR73632 I.P treated eyes compared to the control treated group. Phenol Red thread (yellow color) images showing the thread wetness (red color) measured in mm.
Corneal HSV-1 infection. To carry out ocular HSV-1 infection, mice were first anesthetized by intra-peritoneal injection of Ketamine (33 mg/Kg bodyweight)+Xylazine (20 mg/Kg bodyweight) in 0.2 ml PBS. The cornea was scarified with trephine (Fine Science Tools, Foster City, Calif.) while twisting three to four times over the corneal surface. 1×10^4 plaque forming units (p.f.u) of HSV-1 virus were then topically applied with a pipette to the eye in 3 μL of 1×PBS followed by gentle massage of the eyelids.
as §1

Row | volume of basal tears (NK1R [1]) | tear volume (phenol red thread wetness) (NK1R [2]; D7 post ocular HSV-1 infection, p<0.05) | tear volume (phenol red thread wetness) (NK1R [2]; D10 post ocular HSV-1 infection, p<0.01) | Compound
1 | reduces the volume of basal tears |  |  | Spantide I
2 |  | Significant increase in tear volume | Significant increase in tear volume | CSCC[C@H](NC(=O)[C@H](CC(C)C)N(C)C(=O)[C@@H]1CCCN1C(=O)[C@H](Cc1ccccc1)NC(=O)[C@H](Cc1ccccc1)NC(=O)CCCCN)C(N)=O [GR73632] (H-[Ava]FFP[NMeL]M-NH2)
